Data from ChEMBL document CHEMBL6182924, “Discovery of a Novel and Potent MET Transcription Inhibitor Targeting Promoter G-Quadruplex for the Treatment of NSCLC” (J Med Chem, 2025).
pIC50, pKd: −log10 of the molar value. Calls of active or inactive are those of the source. The calls are words filed in the database; no cut-off is given here.

Assays:
[1] = Toxicity in BALB/c mouse xenografted with human A549 cells assessed as liver damage at 20 mg/kg, po administered once a day and measured after 20 days by H and E staining based analysis; assay type: organism-based; settings: in vivo, 480 h, time 20 day
[2] = Toxicity in BALB/c mouse xenografted with human A549 cells assessed as body weight loss at 40 mg/kg, po administered once a day and measured after 20 days; assay type: organism-based; settings: in vivo, 480 h, time 20 day
NCI-H1975 [3] = experiment: Downregulation of c-Met mRNA expression in human NCI-H1975 cells at 0.5 to 1 uM incubated for 24 hrs by qRT-PCR analysis; assay type: functional, cell-based; settings: dose 0.5-1 µM
NCI-H1975 [4] = experiment: Induction of cell cycle arrest in human NCI-H1975 cells assessed as accumulation of cells at G1 phase at 0.5 uM measured for 24 hrs by PI/Rnase staining based flow cytometry (reference value: 79.2 %); assay type: functional
A549 [5] = experiment: Induction of cell cycle arrest in human A549 cells assessed as accumulation of cells at G2 phase at 1 uM measured for 24 hrs by PI/Rnase staining based flow cytometry (reference value: 13.4 %); assay type: functional
[6] = Toxicity in BALB/c mouse xenografted with human A549 cells assessed as lung damage at 20 mg/kg, po administered once a day and measured after 20 days by H and E staining based analysis; assay type: organism-based; settings: in vivo, 480 h, time 20 day
A549 [7] = experiment: Induction of apoptosis in human A549 cells assessed as necrotic cells at 1 uM incubated for 24 hrs by Annexin V-FITC/PI staining based flow cytometry analysis (reference value: 4.37 %); assay type: functional
A549 [8] = experiment: Induction of apoptosis in human A549 cells assessed as viable cells at 1 uM incubated for 24 hrs by Annexin V-FITC/PI staining based flow cytometry analysis (reference value: 91.3%); assay type: functional; settings: read-out: Activity
NCI-H1975 [9] = experiment: Induction of apoptosis in human NCI-H1975 cells assessed as early apoptotic cells at 1 uM incubated for 24 hrs by Annexin V-FITC/PI staining based flow cytometry analysis (reference value: 0.35 %); assay type: functional
NCI-H1975 [10] = experiment: Induction of apoptosis in human NCI-H1975 cells assessed as late apoptotic cells at 0.5 uM incubated for 24 hrs by Annexin V-FITC/PI staining based flow cytometry analysis (reference value: 2.27 %); assay type: functional
A549 [11] = experiment: Antiproliferative activity against human A549 cells incubated for 3 days by CCK-8 assay; assay type: functional, cell-based; settings: A549, 72 h
A549 [12] = experiment: Induction of apoptosis in human A549 cells assessed as early apoptotic cells at 1 uM incubated for 24 hrs by Annexin V-FITC/PI staining based flow cytometry analysis (reference value: 1.73 %); assay type: functional
NCI-H1975 [13] = experiment: Induction of apoptosis in human NCI-H1975 cells assessed as viable cells at 2 uM incubated for 24 hrs by Annexin V-FITC/PI staining based flow cytometry analysis (reference value: 90.1 %); assay type: functional; settings: read-out: Activity
A549 [14] = experiment: Induction of apoptosis in human A549 cells assessed as necrotic cells at 2 uM incubated for 24 hrs by Annexin V-FITC/PI staining based flow cytometry analysis (reference value: 4.37 %); assay type: functional
NCI-H1975 [15] = experiment: Inhibition of colony formation in human NCI-H1975 cells incubated for 2 weeks by crystal violet staining based analysis; assay type: functional, cell-based; settings: dose 0.5-2 µM
BaF3 [16] = experiment: Antiproliferative activity against mouse BaF3 cells harboring TPR-MET […] mutant incubated for 24 hrs by CCK-8 assay; assay type: functional, cell-based; settings: BaF3, 24 h
A549 [17] = experiment: Induction of cell cycle arrest in human A549 cells assessed as accumulation of cells at G2 phase at 0.5 uM measured for 24 hrs by PI/Rnase staining based flow cytometry (reference value: 13.4 %); assay type: functional
A549 [18] = experiment: Induction of apoptosis in human A549 cells assessed as late apoptotic cells at 1 uM incubated for 24 hrs by Annexin V-FITC/PI staining based flow cytometry analysis (reference value: 2.56 %); assay type: functional
A549 [19] = experiment: Antiproliferative activity against MET knockdown human A549 cells assessed as inhibition of cell growth by CCK-8 assay; assay type: functional, cell-based
[20] = Toxicity in BALB/c mouse xenografted with human A549 cells assessed as heart damage at 40 mg/kg, po administered once a day and measured after 20 days by H and E staining based analysis; assay type: organism-based; settings: in vivo, 480 h, time 20 day
A549 [21] = experiment: Induction of apoptosis in human A549 cells assessed as late apoptotic cells at 2 uM incubated for 24 hrs by Annexin V-FITC/PI staining based flow cytometry analysis (reference value: 2.56 %); assay type: functional
[22] = Toxicity in BALB/c mouse xenografted with human A549 cells assessed as spleen damage at 20 mg/kg, po administered once a day and measured after 20 days by H and E staining based analysis; assay type: organism-based; settings: in vivo, 480 h, time 20 day
Quadruplex DNA [23] = experiment: Binding affinity to c-MET G4-quadruplex DNA (unknown origin) assessed as change in melting temperature
Quadruplex DNA [24] = experiment: Binding affinity to c-MET G4-quadruplex DNA (unknown origin) assessed as dissociation constant by MST assay; assay type: nucleic-acid assay
NCI-H1975 [25] = experiment: Induction of apoptosis in human NCI-H1975 cells assessed as necrotic cells at 0.5 uM incubated for 24 hrs by Annexin V-FITC/PI staining based flow cytometry analysis (reference value: 7.33 %); assay type: functional
BaF3 [26] = experiment: Antiproliferative activity against mouse BaF3 cells harboring TPR-MET L1195V mutant incubated for 24 hrs by CCK-8 assay; assay type: functional, cell-based; settings: BaF3, 24 h
A549 [27] = experiment: Antitumor activity against human A549 cells xenografted in BALB/c mouse assessed as tumor growth inhibition at 20 mg/kg, po administered once a day and measured up to 24 days; assay type: functional; settings: A549, 576 h, time <= 24 day, read-out: TGI
NCI-H1975 [28] = experiment: Induction of cell cycle arrest in human NCI-H1975 cells assessed as accumulation of cells at G2 phase at 2 uM measured for 24 hrs by PI/Rnase staining based flow cytometry (reference value: 14.8 %); assay type: functional
[29] = Toxicity in BALB/c mouse xenografted with human A549 cells assessed as spleen damage at 20 mg/kg, po administered once a day and measured after 40 days by H and E staining based analysis; assay type: organism-based; settings: in vivo, 960 h, time 40 day
A549 [30] = experiment: Induction of apoptosis in human A549 cells assessed as viable cells at 2 uM incubated for 24 hrs by Annexin V-FITC/PI staining based flow cytometry analysis (reference value: 91.3%); assay type: functional; settings: read-out: Activity
NCI-H1975 [31] = experiment: Induction of apoptosis in human NCI-H1975 cells assessed as viable cells at 1 uM incubated for 24 hrs by Annexin V-FITC/PI staining based flow cytometry analysis (reference value: 90.1 %); assay type: functional; settings: read-out: Activity
A549 [32] = experiment: Antitumor activity against human A549 cells xenografted in BALB/c mouse assessed as reduction in ki67 expression in tumor at 40 mg/kg, po administered once a day and measured up to 24 days by […] based analysis; assay type: functional, organism-based; settings: time <= 24.0 day
NCI-H1975 [33] = experiment: Induction of cell cycle arrest in human NCI-H1975 cells assessed as accumulation of cells at G2 phase at 1 uM measured for 24 hrs by PI/Rnase staining based flow cytometry (reference value: 14.8 %); assay type: functional
NCI-H1975 [34] = experiment: Induction of apoptosis in human NCI-H1975 cells assessed as late apoptotic cells at 1 uM incubated for 24 hrs by Annexin V-FITC/PI staining based flow cytometry analysis (reference value: 2.27 %); assay type: functional

**Q.** For `COc1cccc(-c2ccc(-c3nc4c5cccnc5c5ncccc5c4[nH]3)o2)c1`, which Activity [1] is on record?
**A.** Non-toxic

**Q.** And the Activity [2]?
**A.** Non-toxic

**Q.** And the Activity (NCI-H1975 [3])?
**A.** Active

**Q.** And the Activity (NCI-H1975 [4])?
**A.** 80.5%

**Q.** What about the Activity (A549 [5]) of the same compound?
**A.** 10.4%

**Q.** And the Activity [6]?
**A.** Non-toxic

**Q.** And the Activity (A549 [7])?
**A.** 8.81%

**Q.** And the viability at 1 µM (A549 [8])?
**A.** 74%

**Q.** What about the Activity (NCI-H1975 [9]) of the same compound?
**A.** 2.2%

**Q.** And the Activity (NCI-H1975 [10])?
**A.** 8.12%

**Q.** And the pIC50 (A549 [11])?
**A.** 6.37

**Q.** And the Activity (A549 [12])?
**A.** 6.47%

**Q.** And the viability at 2 µM (NCI-H1975 [13])?
**A.** 79.7%

**Q.** What about the Activity (A549 [14]) of the same compound?
**A.** 6.99%

**Q.** What about the inhibition (NCI-H1975 [15]) of the same compound?
**A.** Dose-dependent-effect

**Q.** And the pIC50 (BaF3 [16])?
**A.** 6.21

**Q.** What about the Activity (A549 [17]) of the same compound?
**A.** 14.6%

**Q.** What about the Activity (A549 [18]) of the same compound?
**A.** 10.8%

**Q.** What about the Activity (A549 [19]) of the same compound?
**A.** Active

**Q.** What about the Activity [20] of the same compound?
**A.** Non-toxic

**Q.** And the Activity (A549 [21])?
**A.** 23.5%

**Q.** What about the Activity [22] of the same compound?
**A.** Non-toxic

**Q.** And the ΔTm (Quadruplex DNA [23])?
**A.** 10.8 °C

**Q.** What about the pKd (Quadruplex DNA [24]) of the same compound?
**A.** 7.13

**Q.** What about the Activity (NCI-H1975 [25]) of the same compound?
**A.** 4.81%

**Q.** And the pIC50 (BaF3 [26])?
**A.** 6.29

**Q.** And the inhibition in vivo at 20 mg/kg (A549 [27])?
**A.** 43%

**Q.** What about the Activity (NCI-H1975 [28]) of the same compound?
**A.** 11%

**Q.** What about the Activity [29] of the same compound?
**A.** Non-toxic

**Q.** And the viability at 2 µM (A549 [30])?
**A.** 57.4%

**Q.** And the viability at 1 µM (NCI-H1975 [31])?
**A.** 83.6%

**Q.** What about the Activity (A549 [32]) of the same compound?
**A.** Active

**Q.** What about the Activity (NCI-H1975 [33]) of the same compound?
**A.** 11.5%

**Q.** What about the Activity (NCI-H1975 [34]) of the same compound?
**A.** 10.1%
